From patent US6028109A, “Use of agonists of the peroxisome proliferator activated receptor alpha for treating obesity” (Glaxo Wellcome Inc., priority 1996, dated 2000)

Legend:
[1] = Change of body weight in hamsters on 1% cholesterol chow, 14 days oral dosing; assay type: in vivo, Golden Syrian hamsters; conditions: for change of body weight (gained): diet-only control gained 23.2 g; for change of body weight (lost): Compound B Test, diet-only control gained 13 g
Experimental: Male Golden Syrian hamsters (supplied by Charles River), weighing approximately 140-150 g at the start of the study, were subjected to the following dietary regime. On day 0, four groups of animals (n=6/group) were begun on a diet consisting of rodent chow containing 1% cholesterol. Three of the four groups on the cholesterol diet also began oral dosing with Compound A as described in Example 3 ([…]). Compound A was given as a suspension in 5% bicarbonate and 0.5% methyicellulose. The study was carried out for 14 days.
The above dietary regime was also carried out with Compound B, but the dosages of Compound B employed were 0.1, 0.5 and 1mglkg/day.
The changes of body weight observed were as follows: […]

[2] = target: T1, mPPARα (Mus musculus, UniProt P23204); assay: Transient cotransfection assay, GAL4-PPARα chimera in CV-1 cells (mouse PPARα); assay type: cell-based; conditions: transfection assay
T1 construct: amino acids 174-475 of PPARα; expressed in transfected cells; host or cells: CV-1 cells
T1 sequence (P23204 167-468 limits assumed): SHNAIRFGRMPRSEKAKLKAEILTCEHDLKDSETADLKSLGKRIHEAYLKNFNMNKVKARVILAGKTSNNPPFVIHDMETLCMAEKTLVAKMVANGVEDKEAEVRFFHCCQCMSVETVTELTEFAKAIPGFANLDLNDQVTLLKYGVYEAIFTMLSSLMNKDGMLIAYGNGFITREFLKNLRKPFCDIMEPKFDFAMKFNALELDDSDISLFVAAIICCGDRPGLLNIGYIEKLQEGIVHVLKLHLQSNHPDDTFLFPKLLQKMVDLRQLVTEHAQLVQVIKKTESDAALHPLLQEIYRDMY
Description: (§1) A transient cotransfection assay was used to screen for PPARα activator activity of compounds of formula (I).
(§2) As mammalian cell lines contain endogenous nuclear receptors that can complicate interpretation of the results, we used an established chimera system in which the ligand-binding domain of the PPAR-α was fused to the DNA binding domain of the yeast transcription factor GAL4.The GAL4-PPARα chimera was cotransfected into CV-1 cells with a reporter construct containing five copies of the GAL4 binding site upstream of the thymidine kinase promotor driving secreted placental alkaline phosphatase (SPAP) as reporter.
(§3) GAL4-PPAR chimera and UAS-tk-CAT/SPAP reporters. […]
(§4) Transfection assay; SPAP reporter. […] 16 h later the medium was exchanged to DME medium supplemented with 10% delipidated fetal calf serum and the test compound at a concentration of 10^-5 M. After incubation for an additional 24 h SPAP activity and β-galactosidase activity were measured as previously described (Pfahl et al., 1990).
(§5) Transfection assay: CAT reporter. […] After incubation for an additional 24 h, chloramphenicol acetyl transferase (CAT) activity and β-galactosidase activity were measured as previously described (Pfahl et al., 1990). […]

[3] = target: T2, hPPARα (Homo sapiens, UniProt Q07869); assay: Transient cotransfection assay, GAL4-PPARα chimera in CV-1 cells (human PPARα); assay type: cell-based; conditions: transfection assay
T2 construct: amino acids 174-475 of PPARα; expressed in transfected cells; host or cells: CV-1 cells
T2 sequence (Q07869 167-468 limits assumed): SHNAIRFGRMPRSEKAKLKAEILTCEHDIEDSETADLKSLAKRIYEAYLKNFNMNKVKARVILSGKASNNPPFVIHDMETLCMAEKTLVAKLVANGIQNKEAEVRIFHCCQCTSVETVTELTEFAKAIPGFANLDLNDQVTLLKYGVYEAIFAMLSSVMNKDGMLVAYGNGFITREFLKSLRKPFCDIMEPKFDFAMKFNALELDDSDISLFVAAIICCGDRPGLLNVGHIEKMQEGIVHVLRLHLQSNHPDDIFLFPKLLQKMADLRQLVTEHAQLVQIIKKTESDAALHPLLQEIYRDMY
Description: as §1, §2, §3, §4, §5

[4] = tested on: GST-PPARα; assay: Competition binding for PPARα against the radioligand of Example 2; conditions: 100 nM radioligand of Example 2, 1000-fold excess (100 microM) of competitor; no competitor 40,200 cpm bound
Experimental: a) Binding of the radioligand of Example 2 to PPARα The ligand binding domains of mouse and human PPARα were expressed in E. Coli as fusion proteins with glutathione-S-transferase (GST). DNA encoding the ligand binding domain of mouse and human PPARa was amplified via polymerase chain reaction and inserted in-frame into the bacterial expression vector pGEX-2T (Pharmacia). GST-mPPARα and GST-hPPARa fusion proteins were expressed in BL21(DE3)plysS cells. After a 2 hour induction with 1 mM IPTG, the cells were lysed by freeze/thaw in 1/10 volumes of a buffer containing 50 mM Tris (pH 8), 250 mM KCl, 10 mM DTT, 1 mM PMSF, and 1% Triton X-100. Lysates were clarified by centrifugation for 1 hr at 50,000 x g. 1.5 ml of a 50% glutathione-sepharose bead (Pharmacia)/phosphate buffered saline slurry was added to 10 ml of clarified lysate, the mixture incubated for 30 minutes, and the glutathione-sepharose bead-GST-PPARα complexes were then collected by centrifugation and washed twice in binding buffer containing 50 mM KCl, 10 mM Tris (pH 8), 1 mM DTT. The washed glutathione-sepharose bead-PPARα complexes were resuspended in 0.75 ml binding buffer containing 10% glycerol. […]

EC50 [2] [nM] | EC50 [3] [nM] | cpm bound [4] | Compound | change of body weight (gained) ([1]; 0.05 mg/kg/day oral) [g] | change of body weight (gained) ([1]; 0.1 mg/kg/day oral, Compound A Test) [g] | change of body weight (gained) ([1]; 0.25 mg/kg/day oral) [g] | change of body weight (gained) ([1]; 0.5 mg/kg/day oral, Compound A Test) [g] | change of body weight (lost) ([1]; 0.5 mg/kg/day oral) [g] | change of body weight (lost) ([1]; 1 mg/kg/day oral) [g]
13 | 545 | 18,300 cpm | CCCCCCCN(CCc1ccc(OC(C)(C)C(=O)O)cc1)C(=O)Nc1ccc(F)cc1 [Compound A, 2-(4[2-(3-[4-fluorophenyl]-1-heptylureido)ethyl]-phenoxy)-2-methylpropionicacid] | 20 | 26.2 | 12.6 | 3.4 | – | –
25 | 720 | 13,000 cpm | CCCCCCCN(CCc1ccc(OC(C)(C)C(=O)O)cc1)C(=O)Nc1ccc(F)cc1F [Compound B, 2-(4-[2-(3-[2,4-difluorophenyl]-1-heptylureido)ethyl]-phenoxy)-2-methylpropionic acid] | – | – | – | – | 12.3 | 12.4
